Data reported in US20090221559A1 (priority 2005, published 2009).
Read-outs that look alike come from different tables or passages of the source.

Key:
[1] = molecular target: T1, HCV NS5B polymerase (His-tagged, C-terminal 21 amino acid deleted NS5B, HC-J4) (Hepatitis C virus genotype 1b, UniProt O92972); assay: NS5b polymerase assay (biochemical RdRp assay, 3H-GTP incorporation, SPA beads); design: species or system HCV genotype 1b
T1 construct: The cDNA encoding NS5B amino acid 1-570 (HC-J4, genotype 1b); His tag (His6, from pET-21b) (C); made in house; host or cells: E. coli BL21 (DE3)
T1 sequence (O92972 2417-3000, looked up, stated change not applied): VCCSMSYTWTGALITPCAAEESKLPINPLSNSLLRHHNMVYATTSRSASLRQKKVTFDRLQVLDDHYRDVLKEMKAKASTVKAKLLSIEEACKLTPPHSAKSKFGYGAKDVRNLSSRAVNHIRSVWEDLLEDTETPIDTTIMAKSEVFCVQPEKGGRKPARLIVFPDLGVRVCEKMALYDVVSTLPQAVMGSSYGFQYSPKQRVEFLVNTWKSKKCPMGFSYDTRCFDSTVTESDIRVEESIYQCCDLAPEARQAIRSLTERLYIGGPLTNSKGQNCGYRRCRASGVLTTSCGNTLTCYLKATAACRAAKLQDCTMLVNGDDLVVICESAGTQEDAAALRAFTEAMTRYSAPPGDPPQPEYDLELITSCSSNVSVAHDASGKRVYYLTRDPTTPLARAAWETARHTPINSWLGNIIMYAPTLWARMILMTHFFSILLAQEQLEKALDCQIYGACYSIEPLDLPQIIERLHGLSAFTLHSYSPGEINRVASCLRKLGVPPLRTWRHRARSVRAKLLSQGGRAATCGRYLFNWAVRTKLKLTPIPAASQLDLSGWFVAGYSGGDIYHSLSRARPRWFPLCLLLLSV
How it was run: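 His-tagged C-terminal-21-aa-deleted NS5B (genotype 1b, HC-J4) at 200 nM was preincubated 15 min at RT with compound on 5′-biotinylated oligo(rG13)/poly(rC) template/primer before NTPs. Reaction with 600 nM GTP plus 0.1 μCi 3H-GTP and 5 mM MgCl2 in Tris pH 7.5 ran 2 h at 25 °C. Stopped with EDTA/SPA beads for incorporation counting.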

[2] = test system: HCV replicon RNA replication in Huh-7 luc/neo (Huh-Luc) cells; assay: HCV replicon assay (stable replicon cell reporter assay, luciferase read-out); assay type: cell-based, HCV type 1b
How it was run: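 Huh-7 cells stably carry a bicistronic HCV 1b NS3-NS5B subgenomic replicon with firefly luciferase and neo markers. Cells were plated with compound across a concentration range and incubated three days. Replication was measured as luciferase activity to give dose-response curves.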

[3] = 200 nM enzyme, 3H-GTP incorporation, 2 h at 25° C., read-out: NS5B Polymerase Assay IC50
[4] = Huh-Luc cells, three days incubation, luciferase activity, read-out: Replicon Assay EC50
[5] = NS5B Polymerase Assay IC50 (μM)
[6] = Hepatitis C virus, Huh-7, 72 h, read-out: Replicon Assay EC50 (μM), Huh-Luc cells, incubation of three days, luciferase activity
[7] = NS5B Polymerase Assay IC50, 200 nM enzyme, 3H-GTP incorporation, 2 h at 25° C.
[8] = Hepatitis C virus, Huh-7, 72 h, read-out: Replicon Assay EC50, Huh-Luc cells, three days incubation, luciferase activity

| SMILES | IC50 [1, 5] [µM] | EC50 [2, 6] [µM] | IC50 [1, 7] [µM] | EC50 [2, 8] [µM] | other results |
| --- | --- | --- | --- | --- | --- |
| CCCCOc1ccc(C2CC(=O)C3=C(C2)Nc2ccccc2N(C(=O)c2ccccc2)C3c2ccccc2)cc1 (stereo not shown) [compound 167] |  |  |  |  | IC50 [1, 3]: > 42.7 µM; EC50 [2, 4]: 3.25 µM |
| CC1(C)CC(=O)C2=C(C1)Nc1ccccc1NC2c1cc(Cl)ccc1Cl (stereo not shown) [compound 438, 11-[2,5-dichlorophenyl]-3,3-dimethyl-2,3,4,5,10,11-hexahydro-1H-dibenzo[b,e][1,4]diazepin-1-one] | > 133 | 15.4 |  |  |  |
| CCOc1ccc(C2C3=C(CC(C)(C)CC3=O)Nc3ccccc3N2C(=O)Cc2ccccc2)cc1 (stereo not shown) [compound 86] |  |  | > 42.7 | 9.69 |  |
| CSc1ccc(C2Nc3ccccc3NC3=C2C(=O)CC(c2ccc(Cl)cc2)C3)cc1 (stereo not shown) [compound 382] | > 42.7 | 16.7 |  |  |  |
| CCCCOc1ccc(C2CC(=O)C3=C(C2)Nc2ccccc2N(C(=O)C(F)(F)F)C3c2ccccc2)cc1 (stereo not shown) [compound 171] |  |  |  |  | IC50 [1, 3]: > 42.7 µM; EC50 [2, 4]: 4.54 µM |
| CC1(C)CC(=O)C2=C(C1)Nc1ccccc1N(C(=O)c1ccccc1)C2c1ccc([N+](=O)[O-])cc1 (stereo not shown) [compound 13] |  |  | > 42.7 | 20.4 |  |
| CC(=O)N1c2ccccc2NC2=C(C(=O)CC(c3cccc([N+](=O)[O-])c3)C2)C1c1ccccc1 (stereo not shown) [compound 234] |  |  |  |  | IC50 [1, 3]: > 36.2 µM; EC50 [2, 4]: 3.89 µM |
| CC1(C)CC(=O)C2=C(C1)Nc1ccccc1NC2c1ccc(Oc2ccccc2)cc1 (stereo not shown) [compound 435, 11-(4-phenoxyphenyl)-3,3-dimethyl-2,3,4,5,10,11-hexahydro-1H-dibenzo[b,e][1,4]diazepin-1-one] | > 133 | 6.7 |  |  |  |
| COc1ccc(C2CC(=O)C3=C(C2)Nc2ccccc2NC3c2cc(OC)c(OC)cc2OC)cc1 (stereo not shown) [compound 398] | > 42.7 | 10.9 |  |  |  |
| COc1ccc(C2CC(=O)C3=C(C2)Nc2ccccc2NC3c2cccc(OCc3ccccc3)c2)cc1 (stereo not shown) [compound 326] | > 33.3 | 4.69 |  |  |  |
| CCn1c2ccccc2c2cc([C@@H]3Nc4ccccc4NC4=C3C(=O)C[C@@H](c3ccc(Cl)cc3)C4)ccc21 [compound 480] | > 42.7 | 5.7 |  |  |  |
| CC1(C)CC(=O)C2=C(C1)Nc1ccccc1N(C(=O)c1ccccc1)C2c1ccccc1 (stereo not shown) [compound 92] |  |  | > 42.7 | 17.6 |  |
| CC(=O)N1c2ccccc2NC2=C(C(=O)CC(C)(C)C2)C1c1c(F)cccc1Cl (stereo not shown) [compound 24] |  |  | > 42.7 | 13 |  |
| COc1ccc(C2C3=C(CC(c4cccs4)CC3=O)Nc3ccccc3N2C(=O)Nc2ccc(Cl)c(Cl)c2)cc1 (stereo not shown) [compound 287] |  |  | > 33.3 | 5.01 |  |
| COc1cccc(C2Nc3ccccc3NC3=C2C(=O)CC(c2ccccc2)C3)c1OC (stereo not shown) [compound 347] | > 42.7 | 20.7 |  |  |  |
| Cc1cc2c(cc1C)NC(c1ccc(Cl)cc1Cl)C1=C(CC(C)(C)CC1=O)N2 (stereo not shown) [compound 464, 11-(2,4-Dichlorophenyl)-2,3,4,5,10,11-hexahydro-3,3,7,8-tetramethyl-1H-dibenzo[b,e][1,4]diazepin-1-one] | > 133 | 82.7 |  |  |  |
| COc1ccc(C2CC(=O)C3=C(C2)Nc2ccccc2NC3c2ccc(C)c([N+](=O)[O-])c2)cc1 (stereo not shown) [compound 359] | > 42.7 | 7.33 |  |  |  |
| COc1ccc(OC)c(C2C3=C(CC(C)(C)CC3=O)Nc3ccccc3N2C(=O)C(F)(F)F)c1 (stereo not shown) [compound 3] |  |  | > 42.7 | > 32 |  |
| CC1(C)CC(=O)C2=C(C1)Nc1ccccc1NC2c1ccc(OCc2ccccc2)cc1Cl (stereo not shown) [compound 443] | 0.312 | 1.78 |  |  |  |
| CCC(=O)N1c2ccccc2NC2=C(C(=O)CC(c3ccc(C)cc3)C2)C1c1ccc(C)cc1 (stereo not shown) [compound 201] |  |  | > 33.3 | 9.62 |  |
| Cc1ccc(C2CC(=O)C3=C(C2)Nc2ccccc2N(C(=O)C(F)(F)F)C3c2cccc(Cl)c2)cc1 (stereo not shown) [compound 230] |  |  |  |  | IC50 [1, 3]: > 33.3 µM; EC50 [2, 4]: 19.6 µM |
| CC(=O)N1c2ccccc2NC2=C(C(=O)CC(C)(C)C2)C1c1cccc(O)c1 (stereo not shown) [compound 117] |  |  | > 42.7 | > 32 |  |
| CCC(=O)N1c2ccccc2NC2=C(C(=O)CC(C)(C)C2)C1c1cc(OC)ccc1OC (stereo not shown) [compound 60] |  |  | > 42.7 | 17.9 |  |
